Assays:
mice [1] = assay: in vivo; conditions: LD50/HD50
Method: (§1) The LD50 was determined in mice, rats, and rabbits and the TI was calculated as LD50/HD50.

in vivo = conditions: mouse, in vivo, mice, 95% confidence limits
Method: as §1

mice [2] = assay: animal or person; format: in vivo; conditions: mice; for ED50: Mus musculus, IV over 10 s, 95% confidence limits, read-out: HD50 (the source's name); for Duration of LORR: IV 2× HD50, mean ± SD (n = 10); for Onset time: IV, mean ± SD (n = 10)
Method: All tests were performed during the light period. Groups of mice, rats and rabbits were injected intravenously (lateral tail vein) over 10 s with each dose of test compound, placed in separate boxes to reduce external stimuli and assessed for the loss of righting reflex. Dosing was performed using mg/kg scheme. A set of dose levels was chosen, and depending on whether the loss of righting reflex was observed, extra doses were introduced to provide data for the loss of righting reflex over a narrow dose range to allow potency calculations. From the percentage of mice, rats and rabbits in each group showing loss of righting reflex for ≥30 s, a probit analysis (SAS Institute) was performed to obtain an HD50 for each compound with 95% confidence limits.
Immediately following the injection, the mice, rats and rabbits were tested for loss of righting reflex. […] Once a loss was observed, the interval between the loss of righting reflex and the return to righting reflex was recorded. The anesthetized animals recovered righting reflexes spontaneously. To compare the duration of LORR of each compound at equipotent doses, groups of mice, rats and rabbits were injected with each compound at 2× HD50 over 10 s.
Time to walk was the time required after righting before mice and rabbits walked from the center to the periphery of a 30-cm diameter dise.
The rotarod test was conducted to evaluate the recovery to the motor coordination. Before the LORR test, mice were trained for 2 consecutive days. Trained mice could maintain their balance on rod for more than 2 mins. After the mice could walk from the center to the periphery of a 30-cm diameter dise, they were put on the rotarod. Mice were classified as behavioral recovery when, on being placed on the rod, they could maintain their balance for 20 s. The time to behavioral recovery was the time required after mice walked from the centre to the periphery of a 30-cm diameter disc before they could maintain their balance on rod for 20 s.

GABAA receptor = assay: GABAA radioligand binding assay ([3H]EBOB); conditions: 50 µM compound, 0.5 nM [3H]EBOB, rat frontoparietal cortex
Method: All the new compounds were dissolved in 5% DMSO.
Specific binding was determined in the presence of compounds.
Membrane suspensions were thawed and centrifuged in incubation buffer at 10,000×g for 10 min and washed by a similar centrifugation. For displacement studies, membrane suspensions (5 mg original wet wt./ml) were incubated with 0.5 nM [^3H]EBOB ([…], Perkin Elmer Life Sciences, Boston, MA, USA) in the absence or presence of 50 µM of new compounds or reference drug for 2 h at 25°C. Nonspecific binding was determined in the presence of 10 µM Bicuculline. Bicuculline and picrotoxin were frequently used to determine the nonspecific binding when [3H]EBOB as radioligand [17]. Triplicate 1 ml samples were filtered on Whatman GF/B filters under vacuum with a Brandel Harvester and washed with 3×3 ml ice-cold buffer.

[3] = Octanol:water partition coefficient; format: physicochemical; conditions: water buffered with 10 mm Tris (pH 7.4)
Method: One mg of each hypnotic was added to 10 ml of water buffered with 10 mm Tris (pH 7.4) and 1 ml of octanol. The mixture was stirred overnight and then centrifuged to fully separate the organic and aqueous phases. The relative hypnotic concentration in each phase (i.e., the partition coefficient) was determined by high-performance liquid chromatography as described for blood.

Question: Which TI (mice [1]) does the source give for `CCOC(=O)Cc1ccc(OCC(=O)N(CC)CC)c(OC(F)(F)F)c1` [Compound 5a, Ethyl 2-(4-(2-(diethylamino)-2-oxoethoxy)-3-(trifluoromethoxy)phenyl)acetate] here?
Answer: Its TI is 6.1.

Question: What about the LD50 (in vivo) of the same compound?
Answer: Its LD50 is 442 mg/kg.

Question: What about the ED50 (mice [2]) of the same compound?
Answer: Its ED50 is 72.5 mg/kg.

Question: What about the “Duration of LORR” value (mice [2]) of the same compound?
Answer: Its value is 155.2 ± 10.3 s.

Question: And the Onset time (mice [2])?
Answer: Its Onset time is 35.1 ± 6.8 s.

Question: And the “GABAA binding (50 µmol) (Mean ± SD), percentage of inhibition” value (GABAA receptor)?
Answer: Its value is 69.1±4.2%.

Question: And the “Octanol:Water Partition (Coefficient ± SD)” value [3]?
Answer: The value was 2157±185.

Question: Which results are given for `CCCOC(=O)Cc1ccc(OCC(=O)N(CC)CC)c(OC(F)(F)F)c1` [Compound 5b, propyl 2-(4-(2-(diethylamino)-2-oxoethoxy)-3-(trifluoromethoxy)phenyl)acetate]?
Answer: TI (mice [1]): 5.9; LD50 (in vivo; intravenous): 346 mg/kg; ED50 (mice [2]): 58.7 mg/kg; Duration of LORR (mice [2]): 162.6 ± 15.7 s; Onset time (mice [2]): 32.4 ± 5.6 s; GABAA binding (50 µmol) (Mean ± SD), percentage of inhibition (GABAA receptor): 73.9±5.3%; Octanol:Water Partition (Coefficient ± SD) [3]: 4745±280

Question: Which results are given for `CCN(CC)C(=O)COc1ccc(CC(=O)OCC(F)(F)F)cc1OC(F)(F)F` [Compound 5c, 2,2,2-trifluoroethyl 2-(4-(2-(diethylamino)-2-oxoethoxy)-3-(trifluoromethoxy)phenyl)acetate]?
Answer: anesthetic potency (in words) (mice [2]): poor anesthetic potency; GABAA binding (50 µmol) (Mean ± SD), percentage of inhibition (GABAA receptor): 30.4±3.5%; Octanol:Water Partition (Coefficient ± SD) [3]: 3427±130

Question: What does the source list for `CCOC(=O)Cc1ccc(OCC(=O)N(CC)CC)c(OCC(F)(F)F)c1` [Compound 5d, ethyl 2-(4-(2-(diethylamino)-2-oxoethoxy)-3-(2,2,2-trifluoroethoxy)phenyl)acetate]?
Answer: TI (mice [1]): 5.5; LD50 (in vivo): 260 mg/kg; ED50 (mice [2]): 47.4 mg/kg; Duration of LORR (mice [2]): 181.9 ± 14.3 s; Onset time (mice [2]): 25.2 ± 3.8 s; GABAA binding (50 µmol) (Mean ± SD), percentage of inhibition (GABAA receptor): 67.7±3.2%; Octanol:Water Partition (Coefficient ± SD) [3]: 778±77

Question: With `CCCOC(=O)Cc1ccc(OCC(=O)N(CC)CC)c(OCC(F)(F)F)c1` [Compound 5e, propyl 2-(4-(2-(diethylamino)-2-oxoethoxy)-3-(2,2,2-trifluoroethoxy)phenyl)acetate] as the compound, how does the TI (mice [1]) read?
Answer: The TI was 5.7.

Question: And the LD50 (in vivo)?
Answer: The LD50 was 250 mg/kg.

Question: What about the ED50 (mice [2]) of the same compound?
Answer: The ED50 was 43.8 mg/kg.

Question: And the “Duration of LORR” value (mice [2])?
Answer: Its value is 224.6 ± 19.5 s.

Question: What about the Onset time (mice [2]) of the same compound?
Answer: Its Onset time is 23.4 ± 4.6 s.

Question: What about the “GABAA binding (50 µmol) (Mean ± SD), percentage of inhibition” value (GABAA receptor) of the same compound?
Answer: Its value is 72.2±6.5%.

Question: And the “Octanol:Water Partition (Coefficient ± SD)” value [3]?
Answer: The value was 872±65.

Question: Which results are given for `CCN(CC)C(=O)COc1ccc(CC(=O)OCC(F)(F)F)cc1OCC(F)(F)F` [Compound 5f, 2,2,2-trifluoroethyl 2-(4-(2-(diethylamino)-2-oxoethoxy)-3-(2,2,2-trifluoroethoxy)phenyl)acetate]?
Answer: anesthetic potency (in words) (mice [2]): poor anesthetic potency; GABAA binding (50 µmol) (Mean ± SD), percentage of inhibition (GABAA receptor): 45.4±4.3%; Octanol:Water Partition (Coefficient ± SD) [3]: 1452±156

Question: What does the source list for `CCN(CC)C(=O)COc1ccc(CC(=O)OCC(F)(F)F)cc1OC` [Compound 5g, 2,2,2-trifluoroethyl 2-(4-(2-(diethylamino)-2-oxoethoxy)-3-methoxyphenyl)acetate]?
Answer: TI (mice [1]): 6.1; LD50 (in vivo): 363 mg/kg; ED50 (mice [2]): 59.6 mg/kg; Time to walk (mice [2]; 2× HD50): 22.5 ± 6.9 s; time to behavioral recovery (mice [2]; 2× HD50, rotarod): 46.5 ± 8.5 s; Duration of LORR (mice [2]): 44.8 ± 2.1 s; Onset time (mice [2]): 6.2 ± 0.4 s; GABAA binding (50 µmol) (Mean ± SD), percentage of inhibition (GABAA receptor): 87.2±5.7%; Octanol:Water Partition (Coefficient ± SD) [3]: 597±68

Question: Which ED50 (mice [2]) does the source give for `CCN(CC)C(=O)COc1ccc(CC(=O)OCCC(F)(F)F)cc1OC` [Compound 5h, 3,3,3-trifluoropropyl 2-(4-(2-(diethylamino)-2-oxoethoxy)-3-methoxyphenyl)acetate] here?
Answer: Its ED50 is 25.6 mg/kg.

Question: And the “Duration of LORR” value (mice [2])?
Answer: The value was 69.3 ± 7.8 s.

Question: What about the Onset time (mice [2]) of the same compound?
Answer: Its Onset time is 7.5 ± 1.2 s.

Question: What about the “GABAA binding (50 µmol) (Mean ± SD), percentage of inhibition” value (GABAA receptor) of the same compound?
Answer: Its value is 80.3±7.6%.

Question: And the “Octanol:Water Partition (Coefficient ± SD)” value [3]?
Answer: The value was 792±36.

Question: For `CCN(CC)C(=O)COc1ccc(CC(=O)OC(C)C(F)(F)F)cc1OC` (stereo not shown) [Compound 5i, 1,1,1-trifluoropropan-2-yl 2-(4-(2-(diethylamino)-2-oxoethoxy)-3-methoxyphenyl)acetate], which TI (mice [1]) is on record?
Answer: Its TI is 5.5.

Question: What about the LD50 (in vivo) of the same compound?
Answer: Its LD50 is 112 mg/kg.

Question: What about the ED50 (mice [2]) of the same compound?
Answer: The ED50 was 21.1 mg/kg.

Question: And the “Duration of LORR” value (mice [2])?
Answer: The value was 80.1 ± 9.3 s.

Question: And the Onset time (mice [2])?
Answer: The Onset time was 7.2 ± 0.5 s.

Question: What about the “GABAA binding (50 µmol) (Mean ± SD), percentage of inhibition” value (GABAA receptor) of the same compound?
Answer: Its value is 81.6±10.5%.

Question: And the “Octanol:Water Partition (Coefficient ± SD)” value [3]?
Answer: The value was 1857±124.

Question: With `CCOc1cc(CC(=O)OCCC(F)(F)F)ccc1OCC(=O)N(CC)CC` [Compound 5k, 3,3,3-trifluoropropyl 2-(4-(2-(diethylamino)-2-oxoethoxy)-3-ethoxyphenyl)acetate] as the compound, how does the ED50 (mice [2]) read?
Answer: The ED50 was 29.2 mg/kg.

Question: And the “Duration of LORR” value (mice [2])?
Answer: Its value is 65.6 ± 6.8 s.

Question: And the Onset time (mice [2])?
Answer: Its Onset time is 7.6 ± 0.9 s.

Question: And the “GABAA binding (50 µmol) (Mean ± SD), percentage of inhibition” value (GABAA receptor)?
Answer: Its value is 74.0±6.3%.

Question: And the “Octanol:Water Partition (Coefficient ± SD)” value [3]?
Answer: Its value is 667±102.

Question: Which results are given for `CCOc1cc(CC(=O)OC(C)C(F)(F)F)ccc1OCC(=O)N(CC)CC` (stereo not shown) [Compound 5l, 1,1,1-trifluoropropan-2-yl 2-(4-(2-(diethylamino)-2-oxoethoxy)-3-ethoxyphenyl)acetate]?
Answer: TI (mice [1]): 5.1; LD50 (in vivo): 103 mg/kg; ED50 (mice [2]): 20.7 mg/kg; Duration of LORR (mice [2]): 121.2 ± 11.5 s; Onset time (mice [2]): 7.3 ± 1.1 s; GABAA binding (50 µmol) (Mean ± SD), percentage of inhibition (GABAA receptor): 79.5±10.0%; Octanol:Water Partition (Coefficient ± SD) [3]: 2857±400
